{"source": "paper PMC10088252", "key": {"[1]": {"experiment": "Plasma PK after multiple doses for 28 days, Part A (PKAS), routine PK analysis", "format": "in vivo, human", "experimental": "Serial peripheral blood samples were collected at pre-dose on Cycle 1 Day 8, Cycle 1 Day 15 and Cycle 1 Day 22 for the trough concentration (Ctrough) obtained during the dosing interval. […] After Cycle 1, the Ctrough was measured every 4 or 8 or 12 weeks. The whole blood (3 mL) was taken intravenously and placed in sodium heparin tubes, gently turned over 15 times, and centrifuged within 1 h (4 °C 3000 rpm for 10 min). Two portions of the centrifuged upper plasma should be transferred to 1.5 mL centrifuge tubes with identification labels and stored at -80 °C. The following PK parameters were assessed: time to maximum plasma concentration at steady state (Tmax,ss), overall body clearance at steady state for extravascular dosage (CLss/F), terminal half-life (T1/2), plasma Ctrough observed in Cycle 1 at steady state, total volume of drug distribution at steady state according to the terminal phase (Vz,ss/F), AUC over a dosing interval (AUCtau), ratio of metabolites to parent drug calculated based on AUCtau (MP ratio).\nStatistical analyses were performed using SAS version 9.4 (SAS Institute, Cary, NC, USA). Age was expressed as median (range), and categorical variables were expressed as frequency (percentage). The 95% CIs of ORR and DCR were calculated using Clopper-Pearson method. The 95% CIs of PFS and OS were calculated using Brookmeyer-Crowley method. PK parameters were expressed as mean (standard deviation) or median (range), and analyzed using Phoenix version 8.0 (Certara, LP, Princeton, NJ, USA). No imputation method was performed for missing data."}, "[2]": {"conditions": "Chinese patients with advanced NSCLC, even at 800 mg QD; cited from earlier work"}}, "data": [{"smiles": "O=C(Nc1ccc(Oc2ccnc3c2CCN3)c(F)c1)c1c[nH]cc(-c2ccc(F)cc2)c1=O", "values": [{"measurement": "AUCtau, mean (SD)", "setting": "[1]; 300 mg QD (n=7), 28 days", "value": "7680.0 (4120.0) h × ng/mL"}, {"measurement": "CLss/F, mean (SD)", "setting": "[1]; 300 mg QD (n=7), 28 days", "value": "50.4 (25.6) L/h"}, {"measurement": "Cmax,ss, mean (SD)", "setting": "[1]; 300 mg QD (n=7), 28 days", "value": "794.0 (370.0) ng/mL"}, {"measurement": "Cmin,ss, mean (SD)", "setting": "[1]; 300 mg QD (n=7), 28 days", "value": "104.0 (49.0) ng/mL"}, {"measurement": "Ctrough, mean (SD)", "setting": "[1]; 300 mg QD (n=7), 28 days", "value": "113.5 (55.0) ng/mL"}, {"measurement": "T1/2, mean (SD)", "setting": "[1]; 300 mg QD (n=7), 28 days", "value": "11.2 (2.8) h"}, {"measurement": "Tmax,ss, mean (SD)", "setting": "[1]; 300 mg QD (n=7), 28 days", "value": "3.9 (2.0) h"}, {"measurement": "Vz,ss/F, mean (SD)", "setting": "[1]; 300 mg QD (n=7), 28 days", "value": "781.0 (357.0) L"}, {"measurement": "AUCtau, mean (SD)", "setting": "[1]; 450 mg QD (n=7), 28 days", "value": "11,000.0 (5970.0) h × ng/mL"}, {"measurement": "CLss/F, mean (SD)", "setting": "[1]; 450 mg QD (n=7), 28 days", "value": "57.6 (39.5) L/h"}, {"measurement": "Cmax,ss, mean (SD)", "setting": "[1]; 450 mg QD (n=7), 28 days", "value": "932.0 (480.0) ng/mL"}, {"measurement": "Cmin,ss, mean (SD)", "setting": "[1]; 450 mg QD (n=7), 28 days", "value": "168.0 (127.0) ng/mL"}, {"measurement": "Ctrough, mean (SD)", "setting": "[1]; 450 mg QD (n=7), 28 days", "value": "184.1 (131.2) ng/mL"}, {"measurement": "T1/2, mean (SD)", "setting": "[1]; 450 mg QD (n=7), 28 days", "value": "11.8 (4.8) h"}, {"measurement": "Tmax,ss, mean (SD)", "setting": "[1]; 450 mg QD (n=7), 28 days", "value": "4.0 (1.0) h"}, {"measurement": "Vz,ss/F, mean (SD)", "setting": "[1]; 450 mg QD (n=7), 28 days", "value": "1050.0 (974.0) L"}, {"measurement": "AUCtau, mean (SD)", "setting": "[1]; 600 mg QD (n=7), 28 days", "value": "10,100.0 (5350.0) h × ng/mL"}, {"measurement": "CLss/F, mean (SD)", "setting": "[1]; 600 mg QD (n=7), 28 days", "value": "83.2 (58.9) L/h"}, {"measurement": "Cmax,ss, mean (SD)", "setting": "[1]; 600 mg QD (n=7), 28 days", "value": "788.0 (394.0) ng/mL"}, {"measurement": "Cmin,ss, mean (SD)", "setting": "[1]; 600 mg QD (n=7), 28 days", "value": "157.0 (89.6) ng/mL"}, {"measurement": "Ctrough, mean (SD)", "setting": "[1]; 600 mg QD (n=7), 28 days", "value": "203.9 (99.2) ng/mL"}, {"measurement": "T1/2, mean (SD)", "setting": "[1]; 600 mg QD (n=7), 28 days", "value": "12.7 (4.8) h"}, {"measurement": "Tmax,ss, mean (SD)", "setting": "[1]; 600 mg QD (n=7), 28 days", "value": "3.9 (2.0) h"}, {"measurement": "Vz,ss/F, mean (SD)", "setting": "[1]; 600 mg QD (n=7), 28 days", "value": "1780.0 (2080.0) L"}, {"measurement": "Ctrough, mean (SD)", "setting": "[1]; Cycle 1 Day 8 (192 h), 300 mg QD (n=7)", "value": "163.0 (241.5) ng/mL"}, {"measurement": "Ctrough, mean (SD)", "setting": "[1]; Cycle 1 Day 8 (192 h), 450 mg QD (n=7)", "value": "178.1 (128.0) ng/mL"}, {"measurement": "Ctrough, mean (SD)", "setting": "[1]; Cycle 1 Day 8 (192 h), 600 mg QD (n=7)", "value": "165.6 (66.6) ng/mL"}, {"measurement": "Ctrough, mean (SD)", "setting": "[1]; Cycle 1 Day 15 (360 h), 300 mg QD (n=7)", "value": "161.5 (126.3) ng/mL"}, {"measurement": "Ctrough, mean (SD)", "setting": "[1]; Cycle 1 Day 15 (360 h), 450 mg QD (n=7)", "value": "216.5 (111.8) ng/mL"}, {"measurement": "Ctrough, mean (SD)", "setting": "[1]; Cycle 1 Day 15 (360 h), 600 mg QD (n=7)", "value": "188.7 (67.3) ng/mL"}, {"measurement": "Ctrough, mean (SD)", "setting": "[1]; Cycle 1 Day 22 (528 h), 300 mg QD (n=7)", "value": "124.2 (126.2) ng/mL"}, {"measurement": "Ctrough, mean (SD)", "setting": "[1]; Cycle 1 Day 22 (528 h), 450 mg QD (n=7)", "value": "236.3 (83.4) ng/mL"}, {"measurement": "Ctrough, mean (SD)", "setting": "[1]; Cycle 1 Day 22 (528 h), 600 mg QD (n=7)", "value": "164.1 (65.7) ng/mL"}, {"measurement": "median Tmax,ss", "setting": "[1]; among 300, 450, 600 mg QD cohorts, 28 days", "value": 4.0, "unit": "h"}, {"measurement": "time to steady state", "setting": "[1]; continuous administration", "value": "seven"}, {"measurement": "dose-limiting toxicity (DLT)", "setting": "[2]", "value": "No dose-limiting toxicity (DLT) occurred"}]}]}
